# Test results from patent publication US20240408081A1, “NOVEL SYNERGISTIC COMBINATIONS AND METHODS OF USE THEREOF FOR TREATING CANCERS” (UNIVERSITE DE BORDEAUX, priority 2021, published 2024).
# Assays:
# [1] = system: NEM157i, SU-DIPG-IVi and NEM163i DMG cells; experiment: Proliferation / cell viability assay (Sulforhodamine B) in DMG cell lines; assay type: cell-based, human; conditions: SU-DIPG-IVi and NEM157i; up to 30 μM; absence of GSK-126
# Method: Cell growth was measured with the In vitro Toxicology Assay kit (Sulforhodamine B, Sigma Aldrich, Saint Quentin Fallavier, France) according to manufacturer's instructions. Cells were plated at a density of 2000 cells per well in 96-well plates in triplicates. Absorbance was measured at 565 nm using the CLARIOstar multiplate reader (BMG Labtech, Champigny-sur-Marne, France) at indicated time points.
# [2] = system: NEM157i, NEM163i and primary BXdmg1 cells; experiment: DMG cell migration, wound scratch assay (IncuCyte); assay type: cell-based, human
# Method: 2×10^4 cells/well were placed in a 96-well and incubated for 24h. An IncuCyte Wound Maker (96-pin wound making tool) was used to make scratches.
# Migration was monitored by using the IncuCyte S3 live-cell analysis system (Essen BioScience, Ltd, Royston Hertfordshire, United Kingdom). […] Following functions have been used to optimize visibility of the cells: greyscale mode, bichrome mode, negative, contrast/luminosity, exposition/gamma, negative.
# [3] = system: Huh6 and HepG2 hepatoblastoma cells; experiment: Growth and viability of hepatoblastoma cells (Huh6 and HepG2), 2D and 3D spheroid; assay type: cell-based, human
# Method: (§1) For 2D culture, a total of 2,000 cells/well for Huh6 and 3,000 cells/well for HepG2 were seeded in 96-well microtiter plates. Cell growth was measured at 24 h, 48h, 72h or 96h after genetic manipulation and at 48h or 72h after drug treatment using the in vitro MTS assay Kit or Sulforhodamine B (SRB, Absorbance at 565 nm) assay (Sigma) following manufacturer's instructions. For 3D culture, spheroids were formed as described above and microplates were incubated in an IncuCyte® S3 live cell analysis system and scanned every 8 hours. For genetic manipulation, the lentiviral transductions or the gene depletions were done before the plating. For drug treatments, depending on the experiment and the drug, spheroids were treated at day 4 or 5 for 48h or 72h. Cell viability assay in spheroids was done using 1 μM calcein AM (BioLegend) and 2 μM ethidium homodimer 1 (Sigma) for 30 minutes at 37° C. Spheroids were imaged using an IncuCyte® S3 live cell analysis system. For all cell viability assays, drugs were used at half maximal inhibitory concentration (IC50).
# Huh6 and HepG2 cells = experiment: Clonogenicity assay; assay type: cell-based, human; conditions: GSK-126 3 and 4 μM for Huh6 and HepG2; ATR 8 μM; SIM 4 μM; 10 days
# Method: Huh6 and HepG2 cells were seeded at 500 and 1000 cells/well respectively in 12-well plates. After attachment, cells were treated with drugs.
# Following incubation at 37° C. for 10 days, the cells were fixed with 4% PFA and stained with 0.05% crystal violet. Reading under the Fusion FX (Vilber Lourmat).
# Huh6 cells = experiment: Huh6 tumor xenografts in NSG mice; assay type: in vivo, NOD/LtSz-scid IL2R gamma null (NSG) mice; conditions: intraperitoneal; GSK-126 50 mg/kg, ATR 20 mg/kg 3-times a week; cisplatin 1 mg/kg twice a week
# Method: NOD/LtSz-scid IL2R gamma null (NSG) mice were bred in standard conditions compliant with regulatory bodies (French government). Sterilized food and water were accessible ad libitum. One million of Huh6 cells in 50% of Matrigel were subcutaneously injected in a total volume of 100 μl in the right flank of 8- to 9-week-old female mice (26-32 g; APAFIS #32917-2021121316283534 v2, Agreement #B33063916, Ministère de l'Enseignement Supérieur, de la Recherche et de l'Innovation).
# Tumor growth was monitored by caliper measurement until tumors reached an average volume of 250 mm3 (at day 12, see arrow). […] The vehicle (PBS with 5% DMSO) was injected 3-times a week. Tumor growth was monitored during 16 additional days until tumors control reached a size of 2000 mm3. Thus, all mice were euthanized. Blood was collected from all euthanatized mice and circulating ASAT, ALAT, creatinine, and urea were measured to evaluate the toxicity of the different treatments on the liver and kidneys.
# [4] = rat; cited from earlier work
# [5] = system: histone H3K27me3 in breast and prostate cancer cells; conditions: cited from earlier work
# HepG2 cells = experiment: Cell viability assay (CellTiter 96 AQueous One / MTS) in HepG2; assay type: cell-based, human
# Method: as §1
smiles,measurement,setting,value
COCCNC(=O)Nc1ccc2nc(-c3cccs3)c(-c3cccs3)nc2c1 [ACSS2 inhibitor],"effect on DMG cell proliferation, inhibitor alone",[1],no effect
CC(C)c1c(C(=O)Nc2ccccc2)c(-c2ccccc2)c(-c2ccc(F)cc2)n1CC[C@@H](O)C[C@@H](O)CC(=O)O [Atorvastatin],"effect on DMG cell proliferation, inhibitor alone",[1],no effect
same,migration compared to DMSO,[2],slowed
same,"concentration with antitumor effect, statin alone",[3]; 72 h,≥ 50 µM
same,proliferation and survival of hepatoblastoma cells (clonogenic cell assay),Huh6 and HepG2 cells,little effect
same,development of hepatoblastoma in mice (tumor volume),Huh6 cells,no effect
"CCCc1cc(C)[nH]c(=O)c1CNC(=O)c1cc(-c2ccnc(N3CCN(C)CC3)c2)cc2c1cnn2C(C)C [GSK343, N-[(6-methyl-2-oxo-4-propyl-1H-pyridin-3-yl)methyl]-6-[2-(4-methylpiperazin-1-yl)pyridin-4-yl]-1-propan-2-ylindazole-4-carboxamide]",clearance,[4],high clearance
same,histone H3K27me3 level,[5],suppress
"Cc1cc(C)c(CNC(=O)c2cc(-c3ccc(N4CCN(C)CC4)nc3)cc3c2cnn3C(C)C)c(=O)[nH]1 [GSK926, N-[(4,6-dimethyl-2-oxo-1H-pyridin-3-yl)methyl]-6-[6-(4-methylpiperazin-1-yl)pyridin-3-yl]-1-propan-2-ylindazole-4-carboxamide]",histone H3K27me3 level,[5],suppress
CCC(C)(C)C(=O)O[C@H]1C[C@@H](C)C=C2C=C[C@H](C)[C@H](CC[C@@H]3C[C@@H](O)CC(=O)O3)[C@H]21 [Simvastatin],"concentration with antitumor effect, statin alone",[3]; 72 h,≥ 20 µM
"CCN(c1cc(-c2ccc(CN3CCOCC3)cc2)cc(C(=O)NCc2c(C)cc(C)[nH]c2=O)c1C)C1CCOCC1 [Tazemetostat, N-[(4,6-dimethyl-2-oxo-1H-pyridin-3-yl)methyl]-3-[ethyl(oxan-4-yl)amino]-2-methyl-5-[4-(morpholin-4-ylmethyl)phenyl]benzamide]",effective concentrations on growth of hepatoblastoma cells,[3]; 48 h,above 20 μM
same,sensitivity of hepatoblastoma cells in presence of Simvastatin or Atorvastatin,"[3]; 72 h, 8 μM Atorvastatin or 4 μM Simvastatin",significantly potentiates
CN(C/C=C/C#CC(C)(C)C)Cc1cccc2ccccc12 [Terbinafine],"effect on DMG cell proliferation, inhibitor alone",[1],no effect
N.N.[Cl][Pt][Cl] [cisplatin],IC50,HepG2 cells,12 µM
same,development of hepatoblastoma in mice (tumor volume),Huh6 cells,impeded tumor growth
